Test results from ChEMBL document CHEMBL5131387, “Discovery and computational studies of 2-phenyl-benzoxazole acetamide derivatives as promising P2Y14R antagonists with anti-gout potential” (Eur J Med Chem, 2022).
Calls of active or inactive are those of the source. The rule behind the calls is not given here.

These molecules were tested on Mus musculus (assay: (§1) Anti-inflammatory activity against air pouch inflammation ICR mouse model assessed as decrease in MSU-induced pyroptosis of air pouch macrophages by measuring necrotic cells at 10 uM injected subcutaneously after 24 hrs of MSU stimulation and measured after 24 hrs by caspase-1/PI staining based flow cytometry (Rvb =26.2 %)). Details: route sc.
Format: functional
Set-up: scale not given: the % may be the effect or the level left

SMILES | Activity [%]
COc1ccc(CC(=O)Nc2cccc(-c3nc4ccccc4o3)c2)cc1 | 15
O=C(O)c1cc(-c2ccc(C3CCNCC3)cc2)c2ccc(-c3ccc(C(F)(F)F)cc3)cc2c1 [PPTN] | 18.8

The molecules below were run on Mus musculus (assay: as §1, with “early” for “necrotic”, “(reference value: 13.6” for “(Rvb =26.2”). Details: route sc.
Format: functional
Set-up: scale not given: the % may be the effect or the level left

SMILES | Activity [%]
COc1ccc(CC(=O)Nc2cccc(-c3nc4ccccc4o3)c2)cc1 | 8.73
O=C(O)c1cc(-c2ccc(C3CCNCC3)cc2)c2ccc(-c3ccc(C(F)(F)F)cc3)cc2c1 [PPTN] | 15.4

Species on record: Mus musculus
Experiment: Anti-arthritis activity against MSU-induced acute gout arthritis ICR mouse model assessed as reduction in paw swelling at 10 uM measured at 6 to 24 hrs
Format: functional, organism-based
Details: not given

SMILES | Activity
COc1ccc(CC(=O)Nc2cccc(-c3nc4ccccc4o3)c2)cc1 | Active
O=C(O)c1cc(-c2ccc(C3CCNCC3)cc2)c2ccc(-c3ccc(C(F)(F)F)cc3)cc2c1 [PPTN] | Active

The molecules below were run against T1, P2Y purinoceptor 14 (Homo sapiens) (UniProt Q15391) (assay: Antagonist activity at human P2Y14R expressed in human HEK293 cells assessed as inhibition of cAMP level at 100 nM incubated for 30 mins by cAMP-glo assay relative to control). Details: not given.
T1 sequence (whole entry): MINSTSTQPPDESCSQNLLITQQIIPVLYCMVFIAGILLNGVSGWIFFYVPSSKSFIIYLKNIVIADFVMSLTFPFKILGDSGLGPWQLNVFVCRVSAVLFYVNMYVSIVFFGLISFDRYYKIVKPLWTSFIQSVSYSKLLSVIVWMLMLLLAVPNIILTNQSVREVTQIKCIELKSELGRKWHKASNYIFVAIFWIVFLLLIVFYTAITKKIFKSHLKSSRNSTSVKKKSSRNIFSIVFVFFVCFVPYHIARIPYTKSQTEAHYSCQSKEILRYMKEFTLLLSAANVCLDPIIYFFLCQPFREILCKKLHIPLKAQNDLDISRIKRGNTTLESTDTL
Format: functional, cell-based

inhibition [%] | SMILES
33 | CC(C)(C)c1ccc(CC(=O)Nc2ccc(-c3cc4ccccc4o3)cc2)cc1
36 | O=C(CC1CCOCC1)Nc1ccc(-c2cc3ccccc3o2)cc1

Same assay, conditions: filed as antagonist

SMILES | inhibition [%]
O=C(Cc1cccc(Cl)c1)Nc1cccc(-c2nc3cc(Cl)ccc3o2)c1 | 74.6
O=C(Cc1ccc(OC(F)(F)F)cc1)Nc1cccc(-c2nc3cc(Cl)ccc3o2)c1 | 88
CC(C)(C)c1ccc(CC(=O)Nc2cccc(-c3nc4cc(Cl)ccc4o3)c2)cc1 | 57
COc1ccc(CC(=O)Nc2cccc(-c3nc4ccccc4o3)c2)cc1 | 98
Cc1ccc2oc(-c3cccc(NC(=O)Cc4ccc5c(c4)OCO5)c3)nc2c1 | 55.1
O=C(Cc1cccc(OC(F)(F)F)c1)Nc1cccc(-c2nc3cc(Cl)ccc3o2)c1 | 84
Cc1ccc2oc(-c3cccc(NC(=O)Cc4ccc(C(F)(F)F)cc4)c3)nc2c1 | 71.3
O=C(Cc1cccc(C(F)(F)F)c1)Nc1cccc(-c2nc3cc(Cl)ccc3o2)c1 | 79.7
COc1ccccc1CC(=O)Nc1cccc(-c2nc3cc(Cl)ccc3o2)c1 | 81
O=C(Cc1ccccc1Br)Nc1cccc(-c2nc3cc(Cl)ccc3o2)c1 | 72.6
Cc1ccc(CC(=O)Nc2cccc(-c3nc4ccccc4o3)c2)cc1 | 85.6
O=C(Cc1ccc(OC(F)(F)F)cc1)Nc1cccc(-c2nc3ccccc3o2)c1 | 91
Cc1ccccc1CC(=O)Nc1cccc(-c2nc3ccccc3o2)c1 | 73.3
O=C(Cc1ccccc1Cl)Nc1cccc(-c2nc3ccccc3o2)c1 | 67.2

The remaining lines, values ahead:

inhibition [%] | SMILES
86 | CCCCOc1ccc(CC(=O)Nc2cccc(-c3nc4ccccc4o3)c2)cc1
83.6 | O=C(Cc1ccc(C(F)(F)F)cc1)Nc1cccc(-c2nc3ccccc3o2)c1
57 | O=C(Cc1ccc(C(F)(F)F)cc1)Nc1ccc(-c2cc3ccccc3o2)cc1
72 | Cc1ccc(CC(=O)Nc2ccc(-c3cc4ccccc4o3)cc2)cc1
72.7 | Cc1ccc(CC(=O)Nc2cccc(-c3nc4cc(C)ccc4o3)c2)cc1
45 | O=C(Cc1cccs1)Nc1ccc(-c2cc3ccccc3o2)cc1

What follows are molecules tested against T2, P2Y purinoceptor 14 (Homo sapiens, UniProt Q15391) (assay: Antagonist activity at human P2Y14R expressed in human HEK293 cells assessed as inhibition of cAMP level incubated for 30 mins by cAMP-glo assay). Details: not given.
T2 sequence (Q15391 whole entry): T1 sequence (whole entry)
Format: functional, cell-based

SMILES | IC50 [nM]
O=C(Cc1cccc(Cl)c1)Nc1cccc(-c2nc3cc(Cl)ccc3o2)c1 | 13.4
O=C(Cc1ccc(OC(F)(F)F)cc1)Nc1cccc(-c2nc3cc(Cl)ccc3o2)c1 | 9.8
COc1ccc(CC(=O)Nc2cccc(-c3nc4ccccc4o3)c2)cc1 | 2
O=C(Cc1cccc(OC(F)(F)F)c1)Nc1cccc(-c2nc3cc(Cl)ccc3o2)c1 | 12.6
Cc1ccc2oc(-c3cccc(NC(=O)Cc4ccc(C(F)(F)F)cc4)c3)nc2c1 | 35.1
O=C(Cc1cccc(C(F)(F)F)c1)Nc1cccc(-c2nc3cc(Cl)ccc3o2)c1 | 27.5
COc1ccccc1CC(=O)Nc1cccc(-c2nc3cc(Cl)ccc3o2)c1 | 17.1
O=C(Cc1ccccc1Br)Nc1cccc(-c2nc3cc(Cl)ccc3o2)c1 | 32.9
Cc1ccc(CC(=O)Nc2cccc(-c3nc4ccccc4o3)c2)cc1 | 8.7
O=C(Cc1ccc(OC(F)(F)F)cc1)Nc1cccc(-c2nc3ccccc3o2)c1 | 4.8
Cc1ccccc1CC(=O)Nc1cccc(-c2nc3ccccc3o2)c1 | 9.3

Further lines, results first:

IC50 [nM] | SMILES
12.3 | CCCCOc1ccc(CC(=O)Nc2cccc(-c3nc4ccccc4o3)c2)cc1
11.5 | O=C(Cc1ccc(C(F)(F)F)cc1)Nc1cccc(-c2nc3ccccc3o2)c1
42.4 | Cc1ccc(CC(=O)Nc2ccc(-c3cc4ccccc4o3)cc2)cc1
18.5 | Cc1ccc(CC(=O)Nc2cccc(-c3nc4cc(C)ccc4o3)c2)cc1

These molecules were tested on BMDM (assay: Antiinflammatory activity against MSU-induced C57BL/6 mouse BMDM cells assessed as inhibition of MSU-induced ASC upregulation at 10 uM by measuring fluorescence intensity by immunofluorescence assay). Details: not given.
Format: functional, cell-based

SMILES | Activity
COc1ccc(CC(=O)Nc2cccc(-c3nc4ccccc4o3)c2)cc1 | Active
O=C(O)c1cc(-c2ccc(C3CCNCC3)cc2)c2ccc(-c3ccc(C(F)(F)F)cc3)cc2c1 [PPTN] | Active

Each molecule was assayed on BMDM (assay: Antiinflammatory activity against MSU-induced C57BL/6 mouse BMDM cells assessed as inhibition of MSU-induced NLRP3 upregulation at 10 uM measured after 7 days by western blot analysis). Details: not given.
Format: functional, cell-based

SMILES | Activity
COc1ccc(CC(=O)Nc2cccc(-c3nc4ccccc4o3)c2)cc1 | Active
O=C(O)c1cc(-c2ccc(C3CCNCC3)cc2)c2ccc(-c3ccc(C(F)(F)F)cc3)cc2c1 [PPTN] | Active

Species on record: Mus musculus
Experiment: Anti-arthritis activity against MSU-induced acute gout arthritis ICR mouse model assessed as inhibition of NLRP3 inflammasome activation in foot tissue at 10 uM by microscopic analysis
Format: functional, organism-based
Details: not given

SMILES | Activity
COc1ccc(CC(=O)Nc2cccc(-c3nc4ccccc4o3)c2)cc1 | Active
O=C(O)c1cc(-c2ccc(C3CCNCC3)cc2)c2ccc(-c3ccc(C(F)(F)F)cc3)cc2c1 [PPTN] | Active

The molecules below were run on BMDM (assay: Antiinflammatory activity against MSU-induced C57BL/6 mouse BMDM cells assessed as inhibition of MSU-induced NLRP3 upregulation at 10 uM by measuring fluorescence intensity by immunofluorescence assay). Details: not given.
Format: functional, cell-based

SMILES | Activity
COc1ccc(CC(=O)Nc2cccc(-c3nc4ccccc4o3)c2)cc1 | Active
O=C(O)c1cc(-c2ccc(C3CCNCC3)cc2)c2ccc(-c3ccc(C(F)(F)F)cc3)cc2c1 [PPTN] | Active

Each molecule was assayed on BMDM (assay: Antiinflammatory activity against MSU-induced C57BL/6 mouse BMDM cells assessed as inhibition of MSU-induced GSDMD-NT upregulation at 10 uM measured after 7 days by western blot analysis). Details: not given.
Format: functional, cell-based

SMILES | Activity
COc1ccc(CC(=O)Nc2cccc(-c3nc4ccccc4o3)c2)cc1 | Active
O=C(O)c1cc(-c2ccc(C3CCNCC3)cc2)c2ccc(-c3ccc(C(F)(F)F)cc3)cc2c1 [PPTN] | Active

Each molecule was assayed on Mus musculus (assay: as §1, with “viable” for “necrotic”, “(reference value: 45.5” for “(Rvb =26.2”). Details: route sc.
Format: functional

SMILES | Activity [%]
COc1ccc(CC(=O)Nc2cccc(-c3nc4ccccc4o3)c2)cc1 | 68.5
O=C(O)c1cc(-c2ccc(C3CCNCC3)cc2)c2ccc(-c3ccc(C(F)(F)F)cc3)cc2c1 [PPTN] | 60

These molecules were tested on BMDM (assay: Antiinflammatory activity against MSU-induced C57BL/6 mouse BMDM cells assessed as inhibition of MSU-induced ASC upregulation at 10 uM measured after 7 days by western blot analysis). Details: not given.
Format: functional, cell-based

SMILES | Activity
COc1ccc(CC(=O)Nc2cccc(-c3nc4ccccc4o3)c2)cc1 | Active
O=C(O)c1cc(-c2ccc(C3CCNCC3)cc2)c2ccc(-c3ccc(C(F)(F)F)cc3)cc2c1 [PPTN] | Active

Each molecule was assayed on BMDM (assay: Antiinflammatory activity against MSU-induced C57BL/6 mouse BMDM cells assessed as inhibition of secretion of IL-1beta protein expression in supernatant at 10 uM measured after 7 days by western blot analysis). Details: not given.
Format: functional, cell-based

SMILES | Activity
COc1ccc(CC(=O)Nc2cccc(-c3nc4ccccc4o3)c2)cc1 | Active
O=C(O)c1cc(-c2ccc(C3CCNCC3)cc2)c2ccc(-c3ccc(C(F)(F)F)cc3)cc2c1 [PPTN] | Active

What follows are molecules tested on Mus musculus (assay: as §1, with “late” for “necrotic”, “=14.7” for “=26.2”). Details: route sc.
Format: functional
Set-up: scale not given: the % may be the effect or the level left

SMILES | Activity [%]
COc1ccc(CC(=O)Nc2cccc(-c3nc4ccccc4o3)c2)cc1 | 7.81
O=C(O)c1cc(-c2ccc(C3CCNCC3)cc2)c2ccc(-c3ccc(C(F)(F)F)cc3)cc2c1 [PPTN] | 6.81

Species on record: Mus musculus
Experiment: Anti-arthritis activity against MSU-induced acute gout arthritis ICR mouse model assessed as reversal of GSDMD-NT upregulation in foot tissue at 10 uM by western blot analysis
Format: functional, organism-based
Details: not given

SMILES | Activity
COc1ccc(CC(=O)Nc2cccc(-c3nc4ccccc4o3)c2)cc1 | Active
O=C(O)c1cc(-c2ccc(C3CCNCC3)cc2)c2ccc(-c3ccc(C(F)(F)F)cc3)cc2c1 [PPTN] | Active

Each molecule was assayed on BMDM (assay: Antiinflammatory activity against MSU-induced C57BL/6 mouse BMDM cells assessed as inhibition of MSU-induced caspase-1 upregulation at 10 uM measured after 7 days by western blot analysis). Details: not given.
Format: functional, cell-based

SMILES | Activity
COc1ccc(CC(=O)Nc2cccc(-c3nc4ccccc4o3)c2)cc1 | Active
O=C(O)c1cc(-c2ccc(C3CCNCC3)cc2)c2ccc(-c3ccc(C(F)(F)F)cc3)cc2c1 [PPTN] | Active
